Where two headings read alike, the source gives them in different places.
Experiments:
PD-L1 = test: Inhibitory effect of PD-L1 expression by cell staining with anti-PD-L1 antibody in IFN-γ-treated THP-1 cells (flow cytometry); format: cell-based; details: Homo sapiens, IFN-γ 25 ng/mL, 24±2 hours, subMFI anti-CD274-PC7, read-out: IC50 (50% PD-L1 expression inhibition concentration)
Protocol: The inhibitory effects of each compound of Examples 1 to 6 on the PD-L1 expression were evaluated according to the following procedures.
(1) Acute monocytic leukemia cell-derived THP-1 cells were suspended in RPMI medium containing 10% FCS and 1% P/S (hereinafter, referred to as “RPMI medium”) at 5×10^5 cells/mL to obtain a cell suspension, and the cell suspension was dispensed into each well of a 6 well-plate in an amount of 3 mL. In order to activate the THP-1 cells and express PD-L1 in the cells, IFN-γ (PEPROTECH, Cat. No. 300-02-100UG, >2e+7 U/mg) was added into each well at a concentration of 25 ng/mL (>500 U/mL). 50 mmol/L of the test compound solution was diluted with the medium (usually, in the range of 0.025 mmol/L to 1 mmol/L), and the diluted solution was added into each well in an amount of 60 μL. The plate was incubated in a CO2 incubator (at 37° C. and 5% CO2) for 24±2 hours. In the control group, only DMSO was added in place of the test compound. (2) A part of the prepared cell culture liquid was collected and the number of cells therein was counted using a cell counter (BIORAD TC-20). The cell culture liquid was centrifuged at 300×g for 5 minutes and the supernatant of the cell culture liquid was removed. The cells were suspended in calcium and magnesium free phosphate buffered saline (PBS−) containing 1% bovine serum albumin (BSA) at a cell concentration of 1 to 2×10^7 cells/mL to prepare a cell suspension. (3) Each cell suspension prepared in the above step (2) were added into a 5 mL tube in an amount of 25 μL. 2 μL of 2% normal mouse serum/PBS− was added into tubes, and the tubes were gently pipetted. The tubes were then allowed to stand at room temperature for 15 minutes. (4) Anti-CD274-PC7 antibody (BECKMAN COULTER, Cat. No. A78884) or mouse IgG1-PC7 antibody (BECKMAN COULTER, 737662) as control was added in each tube in an amount of 10 μL, and the tubes were gently stirred. The tubes were then allowed to stand in the dark on an ice bath for 30 minutes. (5) Foxp3/Transcription Factor Fix/Perm Concentrate (4×) (Cat. No. TNB-1020-L050) (A solution) supplied in FOXP3/Transcription Factor Staining kit (TONBO biosciences) was diluted in Foxp3/Transcription Factor Fix/Perm Diluent (1×) (Cat. No. TNB-1022-L160) (A dilution solution) to prepare a 1×A solution. (6) The 1×A solution was added into each tube in an amount of 1 mL, and the tubes were gently pipetted and stirred. The tubes were then allowed to stand in the dark at room temperature for 30 minutes and centrifuged at 300×g for 5 minutes, and then the supernatants therein were removed. (7) 2 mL of 1% BSA/PBS− was added into each tube and the tubes were gently stirred and centrifuged at 300×g for 5 minutes, and then the supernatants therein were removed. (8) The cells therein were suspended in 0.5 mL of 1% BSA/PBS- and measured with a flow cytometer (Sony: Cell Sorter SH800) within 2 hours. The results were analyzed with a software, FlowJo (Tree Star Inc.). The mean peak fluorescence intensity (MFI) of PD-L1 and mean peak fluorescence intensity of IgG1 were calculated from histograms of the measured fluorescence intensity and number of cells, and the mean fluorescence intensity of IgG1 was subtracted from that of PD-L1 to calculate the subMFI. The experiments were performed in n=2.
The subMFI values of the control cells calculated by the FlowJo analysis and the cells cultured with the addition of the test compounds at each concentration (test cells) were input into an Excel file, and the percentages of the subMFI values of the test cells at each concentration to the average subMFI value of control cells were calculated. The regression line was determined from the percentages of the subMFI values of the test cells at each concentration by the method of least squares to calculate the 50% PD-L1 expression inhibition concentration (IC50 value) of each compound.

human PD-L1 promoter = test: Inhibitory effect of luciferase expression under control of PD-L1 promoter (A549/PD-L1luc luciferase assay, corrected by total protein); format: cell-based; details: A549/PD-L1luc cells, 48±4 hours, RLU corrected by total protein amount, read-out: IC50 (50% inhibition value of luciferase expression)
From the text: A reporter vector, pPD-L1luc obtained by the insertion of a human PD-L1 promoter sequence (−2097 to 51) into the multiple cloning site of pGL-3 vector basic (Promega) expresses luciferase under the control of PD-L1 promoter when transfected into animal cells. The pPD-L1luc was transfected into a human non-small cell lung cancer-derived cell line A549 together with pPUR (Clontech) that expresses a puromycin resistance gene (puromycin-N-acetyl-transferase gene), and then cells expressing luciferase which could grow in a puromycin-supplemented medium were selected. The selected cells were named “A549/PD-L1luc cells” and used for luciferase assay as described below.
A test compound was added into a culture liquid containing A549/PD-L1luc cells to observe the influence of the test compound on the amount of luciferase expressed in the cells. Here, it can be considered that when the test compound has a cell cytotoxicity or cell growth inhibitory effect, the total expression level of luciferase is recued due to a reduction in the number of living cells that depends on the concentration of the test compound, and thus the inhibitory effect of luciferase expression under the control of PD-L1 promoter of the test compound cannot be properly evaluated.
A549/PD-L1luc cells were suspended in DMEM containing 10% fetal calf serum (FCS) and 1% penicillin/streptomycin (P/S) (hereinafter, referred to as “DMEM medium”) at 3×10^4 cells/mL to obtain a cell suspension, and the cell suspension was dispensed into each well of a 96-well plate in an amount of 100 μL. In order to perform the assay in triplicate, 3 wells were prepared for control group, and 3 wells were prepared for test compound-treated groups at each concentration. After the dispensation, the 96-well plate was incubated in a CO2 incubator (at 37° C. and 5% CO2) for 24±4 hours.
Each compound of Examples 1 to 6 and Comparative Example 1 was dissolved in dimethylsulfoxide (DMSO) to obtain 50 mmol/L of a compound solution, and the compound solution was stored at −80° C. The compound solution was diluted with DMSO in 2-fold dilution series (usually, in the range of 0.04 mmol/L to 10 mmol/L) to prepare test compound solutions whose concentration varied by two fold for luciferase assay.
Each solution of only DMSO (control) and the diluted test compound (sample) was dispensed into each well containing the cell suspension in an amount of 0.5 μL (200-fold dilution). The solution in each well was mixed with a vortex mixer, and then the 96-well plate was incubated in a CO2 incubator (at 37° C. and 5% CO2) for 48±4 hours. Luciferase Assay Substrate (hereinafter, referred to as “LAS”) supplied in Luciferase Assay Systems (Promega: Cat #E1500) was dissolved in Luciferase Assay Buffer (LAB) to prepare a luciferase reagent. 5× Cell Culture Lysis Reagent (hereinafter, referred to as “CCLR”) was diluted by 5 times with water to prepare 1×CCLR.
After the incubation for 48±4 hours, the medium in each well was completely removed, and 1×CCLR was dispensed into each well in an amount of 50 μL. The plate was allowed to stand at room temperature for 30 minutes, and then 1×CCLR in each well was used as an assay sample for luciferase and total protein amount. The luciferase reagent (100 μL) was placed in a tube for chemiluminescence measurement assay, and the assay sample (20 μL) was added into the tube and mixed with the luciferase reagent to measure chemiluminescence (Relative Luminescence Intensity: RLU) using GloMax 20/20 (Promega).
The above-mentioned assay sample (10 μL) was diluted by 10 times with water (90 μL). Each calibration curve sample was prepared by diluting the BSA solution with water as described in Table 1.
BCA reagent A and BCA reagent B (50:1) supplied in a kit for protein assay were mixed to prepare Working Reagent. Each of the calibration curve samples (Vials I to VI) and the 10-fold diluted assay samples was dispensed into each well of a 96-well plate in an amount of 25 μL, respectively. […]

Compound | IC50 (PD-L1) [µM] | IC50 (human PD-L1 promoter; Homo sapiens) [µM] | IC50 (human PD-L1 promoter) [µM]
O=C(Nc1ccc(Oc2ccc(S(F)(F)(F)(F)F)cc2)cc1)C1CCCN(C(=O)c2ccc(O)cc2)C1 (centres unmarked) [Example 4] | 1.2 | 1.2 | 
O=C(Nc1ccc(Oc2ccc(C(F)(F)F)cc2)cc1)C1CCCN(C(=O)c2ccc(O)cc2)C1 (centres unmarked) [Example 1, 1-(4-Hydroxybenzoyl)-N-(4-(4-(trifluoromethyl)phenoxy)phenyl)piperidine-3-carboxamide] | 1.9 | 1.3 | 
N-(3-(4-Chlorophenoxy)phenyl)-1-(4-hydroxyphenylcarbonyl) piperidine-3-carboxamide [Comparative Example 1, reference compound] |  |  | 14.1
